SMILES strings stand for the structures. Where “and” joins values, the source holds several entries; their conditions need not be identical. Identical values can stand only once.

One data set relates to glycerol release. Briefly: Glycerol release in eWAT of db/db mice (isoproterenol). Particulars: for Release of glycerol in eWAT: db/db mice, isoproterenol stimulation; for Glycerol release in eWAT (Figure 4m): individual samples 1-6. The arrangement: Glycerol release in eWAT (Figure 4m): unit not given here. In kind it is in vivo. Here is the method: The epididymal adipose tissue was dissected, the fresh adipose tissue was weighed and rapidly rinsed with PBS. The adipose tissue was cut and incubated with isoproterenol (10 μM) for 2 h, and homogenized in a cold cleavage buffer to prepare the adipose tissue homogenate. Then the homogenate was centrifuged at 12,000 × g at 4 °C for 15 min, and the supernatant was collected. […] Then the cells were lysed in a petri dish, scraped off, and centrifuged at 12,000 × g at 4 °C for 15 min before the supernatant was collected. […] And concentrations were further standardized according to protein concentration.

A short description of data set [1]: Solubility in water and octanol and log P at 25°C. Particulars: for solubility: 25 °C. The text has this: beyond changes in oral bioavailability and solubility. This is particularly relevant when […]
L og P is the logarithmic value of the oil-water partition coefficient P, which refers to the partition equilibrium of undissociated molecules in the oil and water phases. The log P value is closely related to the water solubility, membrane permeability, in vivo ADME process, and affinity of the compound to the receptor and plays a vital role in the permeation of compounds through biological membranes. The log P 0-5 range is optimal for oral drug penetration by passive diffusion, with poor water solubility for high log P compounds and poor lipid […]
experiments to exert drug activity in cells.

The subject of the next data set is p-TBK1, p-AMPKα, UCP1. Nature of the data set: Western blotting of TNF-α induced 3T3-L1 adipocytes. The format is cell-based, Murine. Set-up: p-TBK1 / p-AMPKα (western blotting, Figure 7j) / UCP1 (western blotting, Figure 7k): unit not given here. The conditions noted are these: for p-TBK1: Figure 7i, replicates; for UCP1 (western blotting, Figure 7k) / p-AMPKα (western blotting, Figure 7j): 3T3-L1 adipocytes, replicates 1-3. How it is done:
The adipose tissue or 3T3-L1 adipocytes were homogenized by ultrasound in an ice‐cold RIPA lysis buffer containing 1% PMSF and centrifuged at 12,000 × g at 4°C for 15 min to collect the supernatant. The BCA protein assay kit (Beyotime, Shanghai, China) was used to detect the total protein concentration. Proteins (20-30 μg) of the sample were separated by 10% SDS-PAGE gel and transferred onto polyvinylidene difluoride (PVDF) membranes. Then the PVDF membranes were blocked in 5% skim milk powder in TBS containing 1% Tween-20 (TBST) for 2 h at room temperature and washed with TBST for 3 times. The membranes were incubated with the appropriate primary antibody, IKKε (1:1000 dilution), TBK1 (1:1000 dilution), p-TBK1 Ser172 (1:1000 dilution), p-AMPKα Thr172 (1:1000 dilution), UCP1 (1:1000 dilution), and GAPDH (1:1000 dilution) in the blocking buffer solution at 4 °C overnight. After washing, the membranes were incubated with horseradish peroxidase-conjugated secondary antibodies (in 5% skim milk powder) for 1 h at room temperature. Finally, the membranes were treated with enhanced chemiluminescence agents (Tanon, Shanghai, China) and the signals were monitored using the Tanon 5200 multi chemiluminescent imaging system (Tanon, Shanghai, China).

Data set [2] has as its system TNF-α and IL-6. Nature of the data set: TNF-α and IL-6 in supernatant of TNF-α induced 3T3-L1 adipocytes (ELISA). In kind it is cell-based, Murine. Particulars: for Levels of TNF-α and IL-6 in the supernatant: 3T3-L1 adipocytes treated with TNF-α; for levels of TNF-α: Figure 7e. Set-up: levels of TNF-α / levels of IL-6: unit not given here. Here is the method:
We next examined the role of BJ on TNF-α induced inflammation of differentiated 3T3-L1 adipocytes.
(§1) The serum was collected by centrifugation at 3000 × g at 4 °C for 15 min and stored at −80 °C until analysis. TG, TC, LDL-C, HDL-C, and FFA were routinely tested on a Chemray 240 automatic biochemical analyzer (Chemray 240, Shenzhen, China). Serum levels of mouse adiponectin, interleukin6 (IL-6), tumor necrosis factor-α (TNF-α) were measured using commercial enzyme-linked immunosorbent assay (ELISA) kits (Nanjing Jiancheng Bioengineering Institute, Nanjing, China) and according to the manufacturer’s instructions. The levels of IL-6, TNF-α in 3T3-L1 adipocyte culture supernatant were also detected by ELISA.

The test system of another data set is db/db mice. Briefly: Serum ASAT, ALAT, BUN and Cr (toxicity) in db/db mice. The format is in vivo.
The test system of data set [3] is F4/80-positive macrophages. Nature of the data set: Immunohistochemical staining of eWAT for F4/80. The format is in vivo, mice. Particulars: for Quantification of immunohistochemical staining: Figure 5k, individual values; for Proportion of F4/80-positive macrophages around adipocytes: db/db mice, epididymal fat pads. How it is done:
The adipose tissue was fixed overnight in 4% paraformaldehyde, then embedded in paraffin and cut into 5 µm thick slices. Tissue sections were stained with hematoxylin and eosin (H&E). For immunohistochemistry, sections were incubated with primary antibodies against F4/80 (1:100 dilution) diluted in the blocking solution at 4 °C overnight. The tissue sections were then incubated with the horseradish peroxidase (HRP)-conjugated secondary antibody at room temperature for 2 h. Finally, the sections were developed with diaminobenzidine (DAB) and counterstained with hematoxylin. Images were obtained under a microscope. To quantify the F4/80-positive macrophages, two random fields per sample were analyzed by Image J software. The IHC profiler plugin of ImageJ was used to calculate the F4/80 positive area.

Data set [4] concerns TNF-α and IL-6. Nature of the data set: Serum levels of TNF-α and IL-6 (ELISA). In kind it is in vivo, mice. Set-up: TNFα / IL-6: unit not given here. Particulars: for IL-6: Figure 5i; for Serum TNF-α and IL-6 levels: db/db mice, 5 weeks of treatment. How it is done:
as §1

In data set [5] the test system is Fasn, Acaca, Lpl, Ucp1, Ppargc1a, Ppargc1b, Elovl3, Cox8b. Briefly: qRT-PCR of lipid-metabolism-related genes (eWAT) and thermogenic genes (BAT). The format is in vivo. Particulars: db/db mice; for Expression of lipogenic genes (Fasn, Acaca, Lpl) in eWAT: vs vehicle control. The text has this: Total RNA was isolated from 3T3-L1 cells and adipose tissue homogenates using Trizol reagent (Invitrogen, Carlsbad, CA, USA). RNA concentration and purity were examined at 260/280 nm using a nanodrop spectrophotometer (NanoDrop One, Thermo Fisher Scientific, USA). The total RNA was reverse transcribed to cDNA using the EasyScript All-in-One First-Strand cDNA Synthesis SuperMix for qPCR kit (TransGen Biotech, Beijing, China). The quantitative reverse transcription polymerase chain reaction was performed using TransStart Top Green qPCR SuperMix (TransGen Biotech, Beijing, China) and an Applied Biosystems 7500 RealTime PCR System (Life Technologies, USA). Relative expression levels were normalized to gapdh expression and quantified using the 2^-ΔΔCt method. The primers were synthesized by Shanghai Sangon Biotech, and the detailed primer sequences were shown in Supplementary Table 5 in the supplementary materials.

The mark [6] stands for this setting: 150mg/kg, db/db mice, individual animals.

For orientation: log P means the decadic logarithm of the partition coefficient of the neutral form, usually between octanol and water. As to `CC(C)Cc1ccc(C(C)C(=O)[O-])cc1.COc1ccc2cc3[n+](cc2c1OC)CCc1cc2c(cc1-3)OCO2.O.O.O.O` [BJ, berberine-ibuprofen], the “Release of glycerol in eWAT” value with glycerol release is given as “promoted the release of glycerol”. Besides, the “Glycerol release in eWAT (Figure 4m)” value with glycerol release (db/db+ISO+BJ 75mg/kg) was 372.977 and 400.82 and 389.008 and 382.258 and 389.852 and 395.758. For the same molecule, the log partition coefficient (log P) in data set [1] was determined as 1.564. Also, the p-TBK1 in the data set with p-TBK1, p-AMPKα, UCP1 (Tnfa + 3um BJ) was 0.5551 and 0.4207 and 0.3485; in the data set on p-TBK1, p-AMPKα, UCP1 (Tnfa + 10um BJ), 0.5649 and 0.4409 and 0.466. In the data set on p-TBK1, p-AMPKα, UCP1 (TNF-α induced 3T3-L1 adipocytes, BJ treatment for 24 h), the “Expression of p-AMPKα, UCP1, and p-TBK1” value was “increased significantly”. The “UCP1 (western blotting, Figure 7k)” value with p-TBK1, p-AMPKα, UCP1 (Tnfa + 3um) is 0.6944 and 0.7423 and 0.5922; with p-TBK1, p-AMPKα, UCP1 (Tnfa + 10um), 1.271 and 1.387 and 0.9844. In addition, the “p-AMPKα (western blotting, Figure 7j)” value is 0.6086 and 0.4894 and 0.5999 in the data set on p-TBK1, p-AMPKα, UCP1 (Tnfa + 3um); 0.7332 and 0.6589 and 0.63 in the data set with p-TBK1, p-AMPKα, UCP1 (Tnfa + 10um). The “Levels of TNF-α and IL-6 in the supernatant” value in the data set on TNF-α and IL-6 [2] is “significantly reduced the levels of TNF-α and IL-6”. In addition, the “levels of TNF-α” value with TNF-α and IL-6 [2] (TNF-α(50ng/ml)+10μM BJ, replicates) is 96.425 and 110.916 and 111.046 and 97.6978 and 106.64 and 114.538. Besides, the AST with db/db mice (setting [6]) is recorded as 123.8 U/L. For the same molecule, in the data set on db/db mice (mouse, in vivo), the “Fasting serum ASAT, ALAT, BUN, and Cr levels” value is “reduced fasting serum ASAT, ALAT, BUN, and Cr levels”. Also, the “Quantification of immunohistochemical staining” value in data set [3] (BJ 75mg/kg) is 0.9922 and 0.9735 and 1.1881 and 1.5389 and 0.7221 and 0.7355; in data set [3] (BJ 150mg/kg), 0.2082 and 0.4937 and 0.5395 and 0.2725 and 0.374 and 0.2768. For the same molecule, the “Proportion of F4/80-positive macrophages around adipocytes” value in data set [3] is listed as “lower than that of the vehicle-treated db/db mice”. Besides, the IL-6 in the data set on TNF-α and IL-6 [4] (BJ 75mg/kg, individual values) is 26.97 and 31.48 and 28.06 and 26.92 and 26.5 and 27.07; with TNF-α and IL-6 [4] (BJ 150mg/kg, individual values) it was 19.1 and 22.16 and 23.89 and 18.97 and 21.55 and 28.79. Moreover, the “Serum TNF-α and IL-6 levels” value in the data set on TNF-α and IL-6 [4] is reported as “significantly lower than those in the vehicle-treated group”. In addition, the “Expression of brown fat enrichment genes (Ucp1, Ppargc1a, Ppargc1b, Elovl3, Cox8b) in BAT” value in data set [5] was “elevated express”. Moreover, the “Expression of lipogenic genes (Fasn, Acaca, Lpl) in eWAT” value in data set [5] was “downregulation of lipogenic genes”.
The term solubility denotes the dissolved amount per volume that the medium holds. For orientation: logP means a log measure of how a compound divides between an organic and an aqueous phase. Consider `COc1ccc2cc3[n+](cc2c1OC)CCc1cc2c(cc1-3)OCO2` [BBR, Berberine chloride dihydrate], for which, in the data set on glycerol release, the “Release of glycerol in eWAT” value is “promoted the release of glycerol”. Also, the “Glycerol release in eWAT (Figure 4m)” value in the data set on glycerol release (db/db+ISO+BBR 150mg/kg) is 626.099 and 631.162 and 626.943 and 630.318 and 632.849. In addition, in data set [1] (octanol, organic solvent or mixture), the solubility came out at 14.3 ± 0.41 µM. Moreover, in data set [1] (octanol/water), the logP is -0.041. This molecule also came in with a solubility in data set [1] (water) of 15.8 ± 0.81 µM. Also, in the data set on p-TBK1, p-AMPKα, UCP1 (Tnfa + 10um BBR), the p-TBK1 is 0.5119 and 0.483 and 0.454. Moreover, in the data set with p-TBK1, p-AMPKα, UCP1 (Tnfa + 10um), the “UCP1 (western blotting, Figure 7k)” value is 0.8587 and 1.148 and 0.9274; the “p-AMPKα (western blotting, Figure 7j)” value is 0.5058 and 0.5536 and 0.7822. The “Levels of TNF-α and IL-6 in the supernatant” value in the data set with TNF-α and IL-6 [2] is “significantly reduced the levels of TNF-α and IL-6”. For the same molecule, the “levels of TNF-α” value in the data set on TNF-α and IL-6 [2] (TNF-α(50ng/ml)+10μM BBR, replicates) was 111.895 and 109.61 and 99.3949 and 99.3623 and 111.275 and 110.361. The “levels of IL-6” value with TNF-α and IL-6 [2] (Figure 7f, TNF-α(50ng/ml)+10μM BBR, replicates) was 17.4575 and 16.5244 and 17.8031 and 16.7594 and 17.9828 and 16.9875. In the data set on db/db mice (setting [6]), the ALT was 86 U/L and 97 U/L and 103 U/L and 92 U/L and 85 U/L; the AST was 125.4 U/L and 140.1 U/L and 155.9 U/L and 114.8 U/L and 154.6 U/L and 172.8 U/L; the BUN was 8.17 mmol/L and 9.82 mmol/L and 8.93 mmol/L and 9.15 mmol/L and 9.31 mmol/L and 8.1 mmol/L; the Cr was 17.7 µmol/L and 16.3 µmol/L and 16.4 µmol/L and 17.9 µmol/L and 17.6 µmol/L. Besides, the “Fasting serum ASAT, ALAT, BUN, and Cr levels” value in the data set on db/db mice (db/db mice, 5 weeks of treatment, vs vehicle control) was “reduced fasting serum ASAT, ALAT, BUN, and Cr levels”. In addition, the “Quantification of immunohistochemical staining” value in data set [3] (BBR 150mg/kg) was 0.8707 and 0.7836 and 0.9995 and 1.2402 and 1.136 and 0.9532. Moreover, the “Proportion of F4/80-positive macrophages around adipocytes” value in data set [3] is on record as “lower than that of the vehicle-treated db/db mice”. Moreover, in the data set with TNF-α and IL-6 [4] (BBR 150mg/kg, individual values), the IL-6 is 24.23 and 30 and 30.18 and 32.12 and 23.56 and 26.45. Further, the TNFα in the data set with TNF-α and IL-6 [4] (Figure 5h, BBR 150mg/kg, individual values) is 161.97 and 148.57 and 185.98 and 167.03 and 204.23 and 186.47. Further, the “Serum TNF-α and IL-6 levels” value in the data set with TNF-α and IL-6 [4] is given as “significantly lower than those in the vehicle-treated group”. In addition, in data set [5], the “Expression of brown fat enrichment genes (Ucp1, Ppargc1a, Ppargc1b, Elovl3, Cox8b) in BAT” value is recorded as “elevated express” and the “Expression of lipogenic genes (Fasn, Acaca, Lpl) in eWAT” value is given as “downregulation of lipogenic genes”.

For the origin of these results see article PMC9374667 (Communications Biology, 2022).
